Here are results for 17 compounds from patent publication US11040963B2 (priority 2017, dated 2021).

The target in series [1] is HA H5 A/Vietnam/1203/04 (Influenza A virus (A/Vietnam/1203/2004(H5N1)), UniProt Q5EP31). The experiment in a line: biochemical. The conditions noted are these: Competition binding (AlphaLISA), pIC50 H5 A/Vietnam/1203/04.
The nature of the next series: in vitro. As to conditions: dog, Cytotoxicity (pCC50) MDCK.
Series [2] addresses HA H1 A/California/07/09 (Influenza A virus (A/California/07/2009(H1N1)), UniProt C3W5X2). The experiment in a line: biochemical. As to conditions: Competition binding (AlphaLISA), pIC50 H1 A/California/07/09.
The next series relates to H5N1 A/Vietnam/1203/04. Briefly: microbe, parasite or virus in culture. The conditions noted are these: 96 h, average of repeats; for EC50: Influenza A virus, H5N1, MDCK, read-out: Virus neutralization assay (VNA), pEC50 H5N1 A/Vietnam/1203/04, MDCK cells, 96 h, CPE by ATPlite (converted); for Virus neutralization assay (VNA), pEC50 H5N1 A/Vietnam/1203/04: MDCK cells, CPE by ATPlite. Format: cell-based, influenza A virus.

A further series has as its system H1N1 A/PR/8/34-MA. The experiment in a line: microbe, parasite or virus in culture. Format: cell-based, influenza A virus. As to conditions: Influenza A virus, MDCK, 96 h, read-out: Virus neutralization assay (VNA), pEC50 H1N1 A/PR/8/34-MA (converted).
A further series deals with H1N1 A/California/07/09. The experiment in a line: microbe, parasite or virus in culture. The format is cell-based, influenza A virus. As to conditions: for EC50: Influenza A virus, H1N1, MDCK, 96 h, read-out: Virus neutralization assay (VNA), pEC50 H1N1 A/California/07/09 (converted).
Series [3] has as its target HA H1 A/New Caledonia/20/99 (Influenza A virus (A/New Caledonia/20/1999(H1N1)), UniProt Q6WG00). Briefly: biochemical. As to conditions: Competition binding (AlphaLISA), pIC50 H1 A/New Caledonia/20/99.
In series [4] the test system is H1N1 A/New Caledonia/20/99. The experiment in a line: microbe, parasite or virus in culture. The conditions noted are these: for EC50: Influenza A virus, H1N1, MDCK, 96 h, read-out: Virus neutralization assay (VNA), pEC50 H1N1 A/New Caledonia/20/99 (converted). The format is cell-based, influenza A virus.
For another series, the system named is MDCK cells. As to conditions: dog.

Molecules are shown by their SMILES. pIC50: −log10 of the molar value.

On to `COC(=O)[C@@H](c1ccccc1)N1CCN(C(=O)c2cccc(-c3nc4ccc(OC)cc4s3)c2)CC1` [Example 19], for which the pIC50 was 6.70 in series [1], 7.70 in [2] and 7.80 in [3]. The compound also gave a cytotoxic concentration (CC50) in the series “in vitro” of more than 50.1 µM. Moreover, the EC50 in the series on H5N1 A/Vietnam/1203/04 is 1.58 µM; in the series on H1N1 A/PR/8/34-MA, 0.126 µM; with H1N1 A/California/07/09, 0.251 µM; in [4] it was 0.1 µM.

In the case of `Cc1nnc([C@@H](c2ccccc2)N2CCN(C(=O)c3cccc(-c4nc5cc(C(F)(F)F)ccc5o4)c3)CC2)o1` [Example 27], the negative logarithm of the IC50 (pIC50) in [1] is 5.90; in series [2], 7.50; in series [3], 7.30. Also, the results for the EC50 (in the series on H5N1 A/Vietnam/1203/04; in the series with H1N1 A/California/07/09; in series [4]) were 39.8 µM, 0.316 µM and 0.316 µM, respectively. In the series with MDCK cells, the “Cytotoxicity (pCC50) MDCK” value is reported as less than 4.3.

For `COC(=O)C(c1ccccc1)N1CCN(C(=O)c2cccc(-c3nc4ccc(OC)cc4s3)c2)CC1` (stereo not drawn) [Example 29], the pIC50 in [1] was 6.60; in series [2], 7.60; in series [3], 7.80. Besides, the CC50 in “in vitro” is 39.8 µM. Moreover, the EC50 with H5N1 A/Vietnam/1203/04 is 3.98 µM; with H1N1 A/PR/8/34-MA, 0.126 µM; in the series with H1N1 A/California/07/09, 0.251 µM; in series [4] it was 0.158 µM.

For the compound `COC(=O)[C@@H](c1ccccc1)C1CCN(C(=O)c2cccc(-c3nc4ccc(OC)cc4s3)c2)CC1` [Example 65], the pIC50 in [1] is 6.20; in [2], 7.00; in series [3] it was 7.30. The compound also had a CC50 in “in vitro” of 39.8 µM. Further, the EC50 was 25.1 µM in the series on H5N1 A/Vietnam/1203/04, 0.631 µM with H1N1 A/PR/8/34-MA, 1 µM with H1N1 A/California/07/09 and 0.501 µM in [4].

As to `Cc1nnc([C@@H](c2ccccc2)N2CCN(C(=O)c3cccc(-c4nc5cc(C(F)(F)F)ccc5o4)c3)CC2)o1` [Example 69], the negative logarithm of the IC50 (pIC50) is 5.60 in [1], 7.20 in [2] and 7.10 in series [3]. In the series on H5N1 A/Vietnam/1203/04, the “Virus neutralization assay (VNA), pEC50 H5N1 A/Vietnam/1203/04” value stood at 4.5. Also, the “Virus neutralization assay (VNA), pEC50 H1N1 A/California/07/09” value in the series on H1N1 A/California/07/09 is listed as 6.4. Further, the “Cytotoxicity (pCC50) MDCK” value in the series on MDCK cells was determined as 5.0. In series [4], the “Virus neutralization assay (VNA), pEC50 H1N1 A/New Caledonia/20/99” value was found to be 6.2.

For the compound `COC(=O)C(c1ccccc1)N1CCN(C(=O)c2cccc(-c3ccc(OC)cc3)c2)CC1` (stereo not drawn) [Example 83], the figures for the pIC50 in [1], in series [2] and in [3] were 5.60, 6.40 and 6.70, respectively. Besides, the CC50 in the series “in vitro” was 39.8 µM. Also, the “Virus neutralization assay (VNA), pEC50 H5N1 A/Vietnam/1203/04” value in the series with H5N1 A/Vietnam/1203/04 was 4.8. For the same compound, the EC50 in the series on H1N1 A/PR/8/34-MA was 1 µM. In addition, the “Virus neutralization assay (VNA), pEC50 H1N1 A/California/07/09” value in the series with H1N1 A/California/07/09 was 5.7. The “Virus neutralization assay (VNA), pEC50 H1N1 A/New Caledonia/20/99” value in series [4] was 6.2.

As to `O=C(c1cccc(-c2cc3ccccc3o2)c1)N1CCN(Cc2ccccc2)CC1` [Example 85], the pIC50 in series [1] is 5.50; in series [2], 6.20; in series [3], 6.50. This compound had a CC50 in “in vitro” of 10 µM. In addition, the EC50 was 12.6 µM with H5N1 A/Vietnam/1203/04, 0.501 µM in the series with H1N1 A/PR/8/34-MA, 2.51 µM with H1N1 A/California/07/09 and 0.631 µM in series [4].

With `COC(=O)C(c1ccccc1)C1CCN(C(=O)c2cccc(-c3nc4ccc(OC)cc4s3)c2)CC1` (stereo not drawn) [Example 105], the figures for the negative logarithm of the IC50 (pIC50) in series [1], in [2] and in [3] were 5.70, 6.90 and 7.00, respectively. Besides, the cytotoxic concentration (CC50) in the series “in vitro” is more than 50.1 µM. Moreover, the EC50 with H5N1 A/Vietnam/1203/04 is 12.6 µM; in the series on H1N1 A/PR/8/34-MA, 2 µM; in the series with H1N1 A/California/07/09, 3.16 µM; in series [4], 1 µM.

For the compound `COc1ccc2nc(-c3cccc(C(=O)N4CCN(C(C(C)=O)c5ccccc5)CC4)c3)sc2c1` (stereo not drawn) [Example 106], the pIC50 in [1] is 5.70; in series [2] it was 6.40; in series [3], 6.70. Moreover, the EC50 with H5N1 A/Vietnam/1203/04 is more than 50.1 µM; in the series with H1N1 A/California/07/09, 3.16 µM; in [4] it was 1 µM. Also, the “Cytotoxicity (pCC50) MDCK” value with MDCK cells is recorded as 4.4.

Regarding `CCOC(=O)[C@@H](c1ccccc1)N1CCN(C(=O)c2cccc(-c3ccc(OC)cc3)c2)CC1` [Example 114], the results for the pIC50 in [1], in series [2] and in series [3] were 6.40, 7.00 and 6.90, respectively. Half-maximal cytotoxicity in “in vitro” (CC50) was put at 3.98 µM. Moreover, the EC50 in the series with H5N1 A/Vietnam/1203/04 is 31.6 µM; with H1N1 A/PR/8/34-MA it was 2.51 µM; in the series on H1N1 A/California/07/09, 2 µM; in series [4], 1.26 µM.

With `CCOC(=O)C(c1ccccc1)N1CCN(C(=O)c2cccc(-c3ccc(OC)cc3)c2)CC1` (stereo not drawn) [Example 120], the pIC50 in series [1] was 5.60; in series [2] it was 6.60; in [3], 6.60. Moreover, the CC50 in the series “in vitro” is more than 50.1 µM. Further, the EC50 with H5N1 A/Vietnam/1203/04 is more than 50.1 µM; in the series on H1N1 A/PR/8/34-MA it was 1 µM; in the series on H1N1 A/California/07/09 it was 1.26 µM; in [4], 1.58 µM.

In the case of `COC(=O)C(c1ccccc1)C1CCN(C(=O)c2cccc(-c3nc4ccc(OC)cc4[nH]3)c2)CC1` (stereo not drawn) [Example 123], the values for the pIC50 in [1], in [2] and in series [3] were 4.90, 6.20 and 6.30, respectively. Also, the CC50 in “in vitro” is more than 50.1 µM. For the same compound, the EC50 in the series with H5N1 A/Vietnam/1203/04 is 50.1 µM; in the series on H1N1 A/PR/8/34-MA, 2.51 µM; with H1N1 A/California/07/09 it was 5.01 µM; in [4], 1.58 µM.

As to `COC(=O)C(c1ccccc1)C1CCN(C(=O)c2cccc(-c3ccc(OC)cc3)c2)CC1` (stereo not drawn) [Example 130], the negative logarithm of the IC50 (pIC50) in [1] was 5.00; in series [2], 6.00; in series [3], 6.20. In the series “in vitro”, the cytotoxic concentration (CC50) is 39.8 µM. For the same compound, the EC50 in the series with H5N1 A/Vietnam/1203/04 was 39.8 µM; with H1N1 A/PR/8/34-MA it was 12.6 µM; in the series on H1N1 A/California/07/09 it was 15.8 µM; in [4], 2 µM.

Consider `COc1ccc2nc(-c3cccc(C(=O)N4CCN(C5(c6ccccc6)CCN(C)C5=O)CC4)c3)sc2c1` (stereo not drawn) [Example 131], for which the negative-log IC50 (pIC50) in series [1] is 4.40; in [2], 5.50; in series [3] it was 5.40. In “in vitro”, the midpoint of cytotoxicity, the CC50, lay at 20 µM. In addition, the results for the EC50 (with H5N1 A/Vietnam/1203/04; in the series on H1N1 A/California/07/09; in series [4]) were more than 50.1 µM, 1.58 µM and 2.51 µM, respectively.

As for `COC(=O)C(c1ccccc1)N1CCCN(C(=O)c2cccc(-c3nc4ccc(OC)cc4s3)c2)CC1` (stereo not drawn) [Example 132], the negative logarithm of the IC50 (pIC50) in series [1] was 4.80; in [2] it was 6.10; in [3], 6.20. In addition, in “in vitro”, the CC50 was more than 50.1 µM. Also, the EC50 in the series on H5N1 A/Vietnam/1203/04 was more than 50.1 µM; with H1N1 A/California/07/09, 39.8 µM; in [4] it was 2.51 µM.

`Cn1nnc([C@@H](c2ccccc2)N2CCN(C(=O)c3cc(-c4nc5cc(OC(F)(F)F)ccc5o4)ccn3)CC2)n1` [Example 133]: the pIC50 in series [1] is 6.60; in series [2], 7.80; in series [3], 8.00. In “in vitro”, this compound had a CC50 of more than 50.1 µM. The EC50 with H5N1 A/Vietnam/1203/04 is 0.631 µM; with H1N1 A/California/07/09, 0.0631 µM; in series [4], 0.0251 µM.

Turning to `Cc1nc([C@@H](c2ccccc2)N2CCN(C(=O)c3cc(-c4nc5cc(OC(F)(F)F)ccc5o4)ccn3)CC2)n[nH]1` [Example 134], the negative logarithm of the IC50 (pIC50) in series [1] was 6.80; in [2], 7.40; in [3] it was 7.80. The same compound registered a half-maximal cytotoxic concentration (CC50) in “in vitro” of more than 50.1 µM. Moreover, the figures for the EC50 (in the series on H5N1 A/Vietnam/1203/04; in the series with H1N1 A/California/07/09; in [4]) were 3.98 µM, 0.631 µM and 0.251 µM, respectively.
